Key:
[1] = target: T1, human Cereblon WT GST-tagged protein (Homo sapiens, UniProt Q96SW2); assay: CRBN-binding affinity, HTRF (CEREBLON BINDING kit); details: displacement of Thalidomide-Re reagent, 3 hours at room temperature
T1 construct: purchased CISBIO 64BDCRBNPEH
Method: The CEREBLON BINDING kits (specification: 10,000 tests; product number: Catalog #64BDCRBNPEH; CISBIO company) was used to determine the CRBN binding ability of the compounds to be tested through a HTRF method (homogeneous time-resolved fluorescence). The specific methods are as follows: • 1. […] Then, 2.5 μL of human Cereblon WT GST-tagged protein solution was added to each well. Finally, 5 μL of the thoroughly mixed Thalidomide-Re reagent and GST Eu antibody working solution were added to each of the aforementioned wells. […] The blank control wells were sequentially added with 2.5 μL of diluent #9 (1×) solution, 2.5 μL of PROTAC binding buffer, and 5 μL of thoroughly mixed Thalidomide-Re reagent and GST Eu antibody working solution. • 4.
OD 620 nmcompound is the absorbance value of each well of the compounds to be tested of the present disclosure at an emission wavelength of 620 nm. […] OD 620 nmcontrol is the absorbance value of the blank control well at an emission wavelength of 620 nm. […] OD 620 nmStd0 is the absorbance value of the solvent control well at an emission wavelength of 620 nm.

[2] = target: T2, GSPT1 (Homo sapiens, UniProt P15170+Q96SW2); assay: Western-blot assay, substrate protein in hPBMCs; assay type: cell-based; details: hPBMC cells, 24 hours, tested at 50 nM and 500 nM, table does not say which
T2 construct: endogenous in cells; host or cells: human PBMCs (Milecell Biotechnologies)
T2 sequence (P15170 whole entry): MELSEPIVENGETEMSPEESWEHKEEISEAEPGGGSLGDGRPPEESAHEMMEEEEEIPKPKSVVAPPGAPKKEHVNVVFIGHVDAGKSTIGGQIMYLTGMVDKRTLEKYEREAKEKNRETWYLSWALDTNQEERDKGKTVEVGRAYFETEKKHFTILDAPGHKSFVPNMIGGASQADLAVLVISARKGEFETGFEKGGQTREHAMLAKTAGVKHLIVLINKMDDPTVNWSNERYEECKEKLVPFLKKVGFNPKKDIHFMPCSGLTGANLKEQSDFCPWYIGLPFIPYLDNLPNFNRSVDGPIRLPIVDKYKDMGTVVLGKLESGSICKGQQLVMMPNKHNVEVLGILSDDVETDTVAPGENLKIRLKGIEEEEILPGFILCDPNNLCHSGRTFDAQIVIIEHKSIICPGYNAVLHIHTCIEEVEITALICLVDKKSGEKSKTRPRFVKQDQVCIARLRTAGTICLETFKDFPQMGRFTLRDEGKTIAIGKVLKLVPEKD
T2 sequence (Q96SW2 whole entry): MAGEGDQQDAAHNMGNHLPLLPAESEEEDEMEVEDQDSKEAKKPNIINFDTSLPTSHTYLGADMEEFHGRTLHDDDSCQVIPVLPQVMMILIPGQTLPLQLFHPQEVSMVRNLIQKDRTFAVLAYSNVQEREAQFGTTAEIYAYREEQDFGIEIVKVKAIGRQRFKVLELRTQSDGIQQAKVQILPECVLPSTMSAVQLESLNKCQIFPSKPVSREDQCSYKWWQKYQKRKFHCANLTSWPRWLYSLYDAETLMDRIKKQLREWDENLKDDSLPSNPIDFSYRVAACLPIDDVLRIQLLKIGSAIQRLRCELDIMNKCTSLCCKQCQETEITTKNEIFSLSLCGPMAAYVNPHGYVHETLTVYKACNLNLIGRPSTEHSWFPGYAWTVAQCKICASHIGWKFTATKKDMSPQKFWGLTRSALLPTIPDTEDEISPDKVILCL
T2 sequence (Q16531 whole entry partner): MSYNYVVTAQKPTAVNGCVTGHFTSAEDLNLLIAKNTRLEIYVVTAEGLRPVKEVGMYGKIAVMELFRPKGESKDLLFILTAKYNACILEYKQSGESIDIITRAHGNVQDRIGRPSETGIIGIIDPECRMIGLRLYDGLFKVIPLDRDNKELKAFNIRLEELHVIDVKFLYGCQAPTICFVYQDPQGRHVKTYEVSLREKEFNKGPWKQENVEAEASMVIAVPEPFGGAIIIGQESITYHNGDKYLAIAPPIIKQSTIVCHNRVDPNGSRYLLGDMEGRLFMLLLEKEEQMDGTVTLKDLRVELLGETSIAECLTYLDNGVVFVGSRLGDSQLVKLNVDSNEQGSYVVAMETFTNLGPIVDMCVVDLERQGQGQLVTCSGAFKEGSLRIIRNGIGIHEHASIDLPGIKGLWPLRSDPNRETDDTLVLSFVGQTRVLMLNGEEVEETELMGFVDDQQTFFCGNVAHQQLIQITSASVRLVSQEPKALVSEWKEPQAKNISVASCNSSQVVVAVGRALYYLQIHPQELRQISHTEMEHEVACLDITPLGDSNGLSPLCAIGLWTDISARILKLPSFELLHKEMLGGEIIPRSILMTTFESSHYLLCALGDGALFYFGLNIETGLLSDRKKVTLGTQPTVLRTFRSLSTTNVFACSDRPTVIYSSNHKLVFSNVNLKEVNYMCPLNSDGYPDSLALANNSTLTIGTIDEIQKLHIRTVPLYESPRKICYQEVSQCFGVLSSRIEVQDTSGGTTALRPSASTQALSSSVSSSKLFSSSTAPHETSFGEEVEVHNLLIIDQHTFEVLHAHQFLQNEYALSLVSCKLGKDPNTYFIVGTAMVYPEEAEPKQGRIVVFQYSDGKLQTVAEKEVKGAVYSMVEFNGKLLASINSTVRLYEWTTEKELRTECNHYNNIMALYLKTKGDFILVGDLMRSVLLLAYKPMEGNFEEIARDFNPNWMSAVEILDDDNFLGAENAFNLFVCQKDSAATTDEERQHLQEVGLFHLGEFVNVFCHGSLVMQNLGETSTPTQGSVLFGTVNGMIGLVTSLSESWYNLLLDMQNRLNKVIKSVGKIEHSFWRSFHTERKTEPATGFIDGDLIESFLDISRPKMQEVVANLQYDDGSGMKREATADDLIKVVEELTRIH
Method: (§1) The effect of the compounds of the present disclosure on the expression of target proteins in cells was detected using conventional Western blot analysis.
(§2) Human peripheral blood mononuclear cells (hPBMCs) at a density of 1×10^6 cells/mL were thawed according to the PBMC Recovery Protocol (Milecell Biotechnologies Inc, Shanghai).
(§3) After 24 hours of compounds treatment, cells were harvested and lysed in RIPA protein lysate containing phosphatase inhibitors on ice for 30-60 min, followed by centrifugation. The supernatant was aspirated as the extracted total cell protein. The protein concentration of the supernatant was determined using the conventional BCA (Bicinchoninic Acid) assay. The supernatant was then mixed with 4× SDS sample loading buffer, denatured at 95° C. for 5 minutes, and then subjected to SDS-PAGE electrophoresis on a polyacrylamide gel. Proteins were then transferred to a nitrocellulose (NC) membrane, blocked at room temperature for 1-2 h, and processed for antibody incubation and detection according to the manufacturer's instructions (Cell Signaling Technology).
(§4) Half-Maximal Degradation Concentration value (the drug concentration required for degrading proteins by 50%, abbreviated as DC50) reads method: comparing the grayscale values of Western blot bands from drug-treated samples with those from blank DMSO-treated controls, and identifying the drug concentration range at which the grayscale value is half that of the DMSO-treated control bands.
(§5) DC50 values can be calculated using ImageJ software to measure grayscale values of Western blot bands from drug-treated samples. The concentration-response curve is fitted to estimate the drug concentration corresponding to half the grayscale value.
(§6) Target protein remaining (%) refers to the percentage of target protein remaining in hPBMC cells after treatment with protein degrader compounds.
(§7) Calculation method for protein remaining (%): Use ImageJ software to measure grayscale values of Western blot bands from drug (protein degrader)-treated samples. The grayscale value of drug-treated bands is divided by that of internal control protein bands, and the resulting quotient is normalized to obtain the relative percentage of remaining target protein after protein degrader treatment.
(§8) Target protein degradation rate (%)=100%−target protein remaining (%).

[3] = target: T3, IKZF2 (Homo sapiens, UniProt Q96SW2+Q9UKS7); assay: Western-blot assay, substrate protein in hPBMCs; assay type: cell-based; details: hPBMC cells, 24 hours, tested at 50 nM and 500 nM, table does not say which
T3 construct: endogenous in cells; host or cells: human PBMCs (Milecell Biotechnologies)
T3 sequence (Q9UKS7 whole entry): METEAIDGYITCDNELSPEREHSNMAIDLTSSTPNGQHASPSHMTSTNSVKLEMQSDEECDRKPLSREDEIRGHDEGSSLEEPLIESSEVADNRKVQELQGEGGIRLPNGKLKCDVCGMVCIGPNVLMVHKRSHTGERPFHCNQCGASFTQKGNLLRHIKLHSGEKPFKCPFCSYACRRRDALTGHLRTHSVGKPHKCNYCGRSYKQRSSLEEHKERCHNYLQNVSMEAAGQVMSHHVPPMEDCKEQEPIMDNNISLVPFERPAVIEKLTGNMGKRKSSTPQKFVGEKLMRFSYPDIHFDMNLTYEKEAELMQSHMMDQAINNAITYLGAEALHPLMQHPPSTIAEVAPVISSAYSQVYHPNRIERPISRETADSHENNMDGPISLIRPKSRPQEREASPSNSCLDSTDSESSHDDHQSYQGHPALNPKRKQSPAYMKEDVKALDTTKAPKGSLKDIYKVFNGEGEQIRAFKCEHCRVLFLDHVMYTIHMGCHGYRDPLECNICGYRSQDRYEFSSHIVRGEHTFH
T3 sequence (Q96SW2 whole entry): as the sequence (Q96SW2 whole entry) above
T3 sequence (Q16531 whole entry partner): as the sequence (Q16531 whole entry partner) above
Method: as §1, §2, §3, §4, §5, §6, §7, §8

[4] = target: T4, Wee1 (Homo sapiens, UniProt P30291+Q96SW2); assay: Western-blot assay, substrate protein in hPBMCs; assay type: cell-based; details: hPBMC cells, 24 hours, tested at 50 nM and 500 nM, table does not say which
T4 construct: endogenous in cells; host or cells: human PBMCs (Milecell Biotechnologies)
T4 sequence (P30291 whole entry): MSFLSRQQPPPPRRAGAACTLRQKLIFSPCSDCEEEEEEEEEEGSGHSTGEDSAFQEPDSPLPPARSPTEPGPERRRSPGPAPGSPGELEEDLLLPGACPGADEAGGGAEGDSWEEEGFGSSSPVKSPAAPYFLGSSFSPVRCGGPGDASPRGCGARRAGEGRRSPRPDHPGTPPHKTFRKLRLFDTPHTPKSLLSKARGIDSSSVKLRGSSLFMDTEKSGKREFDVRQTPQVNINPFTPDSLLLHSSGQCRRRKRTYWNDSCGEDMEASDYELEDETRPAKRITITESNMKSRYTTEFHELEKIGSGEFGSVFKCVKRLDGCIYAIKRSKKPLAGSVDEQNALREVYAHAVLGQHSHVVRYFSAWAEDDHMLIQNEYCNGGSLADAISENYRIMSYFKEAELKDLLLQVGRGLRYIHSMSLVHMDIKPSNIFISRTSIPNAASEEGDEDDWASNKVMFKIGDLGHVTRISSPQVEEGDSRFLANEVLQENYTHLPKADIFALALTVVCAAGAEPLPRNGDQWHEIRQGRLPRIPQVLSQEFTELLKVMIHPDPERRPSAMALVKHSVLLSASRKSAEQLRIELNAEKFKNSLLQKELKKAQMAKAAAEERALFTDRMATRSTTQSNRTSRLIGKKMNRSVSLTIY
T4 sequence (Q96SW2 whole entry): as the sequence (Q96SW2 whole entry) above
T4 sequence (Q16531 whole entry partner): as the sequence (Q16531 whole entry partner) above
Method: as §1, §2, §3, §4, §5, §6, §7, §8

[5] = target: T5, CK1α (Homo sapiens, UniProt P48729+Q96SW2); assay: Western-blot assay, substrate protein in hPBMCs; assay type: cell-based; details: hPBMC cells, 24 hours, tested at 50 nM and 500 nM, table does not say which
T5 construct: endogenous in cells; host or cells: human PBMCs (Milecell Biotechnologies)
T5 sequence (P48729 whole entry): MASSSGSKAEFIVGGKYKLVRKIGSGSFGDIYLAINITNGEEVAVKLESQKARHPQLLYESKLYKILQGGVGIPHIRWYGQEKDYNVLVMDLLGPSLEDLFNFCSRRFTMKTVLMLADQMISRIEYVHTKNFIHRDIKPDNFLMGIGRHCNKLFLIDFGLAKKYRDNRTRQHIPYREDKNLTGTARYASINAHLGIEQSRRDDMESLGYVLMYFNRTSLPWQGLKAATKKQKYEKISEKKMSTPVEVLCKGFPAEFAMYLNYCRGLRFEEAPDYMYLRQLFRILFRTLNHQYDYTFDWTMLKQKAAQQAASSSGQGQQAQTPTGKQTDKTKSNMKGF
T5 sequence (Q96SW2 whole entry): as the sequence (Q96SW2 whole entry) above
T5 sequence (Q16531 whole entry partner): as the sequence (Q16531 whole entry partner) above
Method: as §1, §2, §3, §4, §5, §6, §7, §8

T1 sequence (Q96SW2 whole entry): as the sequence (Q96SW2 whole entry) above

| SMILES | IC50 [1] | substrate protein remaining % [2] | substrate protein remaining % [3] | substrate protein remaining % [4] | substrate protein remaining % [5] |
| --- | --- | --- | --- | --- | --- |
| O=C1CCC(N2Cc3cc(SC4CN(CC5=C(c6ccc(F)cc6)CCCC5)C4)ccc3C2=O)C(=O)N1 (stereo not shown) [GT-06301, 3-(5-((1-((4′-fluoro-3,4,5,6-tetrahydro-[1,1′-biphenyl]-2-yl)methyl)azetidin-3-yl)thio)-1-oxoisoindolin-2-yl)piperidine-2,6-dione] | < 500 nM | A (0%≤ substrate protein remaining % ≤80%) | A (0%≤ substrate protein remaining % ≤80%) | A (0%≤ substrate protein remaining % ≤80%) | – |
| O=C1CCC(N2Cc3cc(SC4CCN(C(c5ccccc5)c5ccccc5)C4)ccc3C2=O)C(=O)N1 (stereo not shown) [GT-06196, 3-(5-((1-benzhydrylpyrrolidin-3-yl)thio)-1-oxoisoindolin-2-yl)piperidine-2,6-dione] | 500 to 1000 nM | A (0%≤ substrate protein remaining % ≤80%) | A (0%≤ substrate protein remaining % ≤80%) | – | A (0%≤ substrate protein remaining % ≤80%) |
| CC1(C)CC(c2ccc(Cl)cc2)=C(CN2CC(Oc3ccc4c(c3)CN(C3CCC(=O)NC3=O)C4=O)C2)CO1 (stereo not shown) [GT-06561, 3-(5-((1-((4-(4-chlorophenyl)-6,6-dimethyl-5,6-dihydro-2H-pyran-3-yl)methyl)azetidin-3-yl)oxy)-1-oxoisoindolin-2-yl)piperidine-2,6-dione] | < 500 nM | – | A (0%≤ substrate protein remaining % ≤80%) | A (0%≤ substrate protein remaining % ≤80%) | – |
| CC1(C)CCC(CN2CCCC(Sc3ccc4c(c3)CN(C3CCC(=O)NC3=O)C4=O)CC2)=C(c2ccc(Cl)cc2)C1 (stereo not shown) [GT-06641, 3-(5-((1-((4′-chloro-5,5-dimethyl-3,4,5,6-tetrahydro-[1,1′-biphenyl]-2-yl)methyl)azepan-4-yl)thio)-1-oxoisoindolin-2-yl)piperidine-2,6-dione] | 1000 to 1900 nM | – | A (0%≤ substrate protein remaining % ≤80%) | – | – |
| CC1(C)CCC(C(=O)N2CCC(Oc3ccc4c(c3)CN(C3CCC(=O)NC3=O)C4=O)CC2)=C(c2ccc(Cl)cc2)C1 (stereo not shown) [GT-06192, 3-(5-((1-(4′-chloro-5,5-dimethyl-3,4,5,6-tetrahydro-[1,1′-biphenyl]-2-carbonyl)piperidin-4-yl)oxy)-1-oxoisoindolin-2-yl)piperidine-2,6-dione] | 500 to 1000 nM | – | A (0%≤ substrate protein remaining % ≤80%) | A (0%≤ substrate protein remaining % ≤80%) | – |
| O=C1CCC(N2Cc3cc(SC4CN(C(c5ccccc5)c5ccccn5)C4)ccc3C2=O)C(=O)N1 (stereo not shown) [GT-06518, 3-(1-oxo-5-((1-(phenyl(pyridin-2-yl)methyl)azetidin-3-yl)thio)isoindolin-2-yl)piperidine-2,6-dione] | < 500 nM | A (0%≤ substrate protein remaining % ≤80%) | A (0%≤ substrate protein remaining % ≤80%) | – | A (0%≤ substrate protein remaining % ≤80%) |
| O=C1CCC(N2Cc3cc(OC4CCN(Cc5ccccc5-c5ccc(Cl)cc5)CC4)ccc3C2=O)C(=O)N1 (stereo not shown) [GT-06193, 3-(5-((1-((4′-chloro-[1,1′-biphenyl]-2-yl)methyl)piperidin-4-yl)oxy)-1-oxoisoindolin-2-yl)piperidine-2,6-dione] | 1000 to 1900 nM | A (0%≤ substrate protein remaining % ≤80%) | A (0%≤ substrate protein remaining % ≤80%) | A (0%≤ substrate protein remaining % ≤80%) | – |

Now from value to compound, other results behind:

| IC50 [1] | SMILES | substrate protein remaining % [2] | substrate protein remaining % [3] | substrate protein remaining % [4] | substrate protein remaining % [5] |
| --- | --- | --- | --- | --- | --- |
| < 500 nM | O=C1CCC(N2Cc3cc(OC4CN(C(c5ccccc5F)c5ccccc5F)C4)ccc3C2=O)C(=O)N1 (stereo not shown) [GT-06759, 3-(5-((1-(bis(2-fluorophenyl)methyl)azetidin-3-yl)oxy)-1-oxoisoindolin-2-yl)piperidine-2,6-dione] | A (0%≤ substrate protein remaining % ≤80%) | A (0%≤ substrate protein remaining % ≤80%) | – | – |
| 1000 to 1900 nM | O=C1CCC(N2Cc3cc(SC4CC5CN(Cc6ccccc6-c6ccc(Cl)cc6)CC5C4)ccc3C2=O)C(=O)N1 (stereo not shown) [GT-06914, 3-(5-((2-((4′-chloro-[1,1′-biphenyl]-2-yl)methyl)octahydrocyclopenta[c]pyrrol-5-yl)thio)-1-oxoisoindolin-2-yl)piperidine-2,6-dione] | – | A (0%≤ substrate protein remaining % ≤80%) | A (0%≤ substrate protein remaining % ≤80%) | – |
| 1000 to 1900 nM | CC1(C)CCC(CN2CC3CC(Sc4ccc5c(c4)CN(C4CCC(=O)NC4=O)C5=O)CC3C2)=C(c2ccc(Cl)cc2)C1 (stereo not shown) [GT-06813, 3-(5-((2-((4′-chloro-5,5-dimethyl-3,4,5,6-tetrahydro-[1,1′-biphenyl]-2-yl)methyl)octahydro-cyclopenta[c]pyrrol-5-yl)thio)-1-oxoisoindolin-2-yl)piperidine-2,6-dione] | A (0%≤ substrate protein remaining % ≤80%) | A (0%≤ substrate protein remaining % ≤80%) | A (0%≤ substrate protein remaining % ≤80%) | – |
| < 500 nM | CC1(C)CCC(C(=O)N2C[C@H]3CC(Oc4ccc5c(c4)CN(C4CCC(=O)NC4=O)C5=O)C[C@@H]3C2)=C(c2ccc(Cl)cc2)C1 (stereo partly drawn) [GT-07025, 3-(5-(((3aS,6aS)-2-(4′-chloro-5,5-dimethyl-3,4,5,6-tetrahydro-[1,1′-biphenyl]-2-carbonyl)octahydro-cyclopenta[c]pyrrol-5-yl)oxy)-1-oxoisoindolin-2-yl)piperidine-2,6-dione] | – | A (0%≤ substrate protein remaining % ≤80%) | – | A (0%≤ substrate protein remaining % ≤80%) |
| 1000 to 1900 nM | CC1(C)CCC(C(=O)N2CCCC(Sc3ccc4c(c3)CN(C3CCC(=O)NC3=O)C4=O)CC2)=C(c2ccc(Cl)cc2)C1 (stereo not shown) [GT-06642, 3-(5-((1-(4′-chloro-5,5-dimethyl-3,4,5,6-tetrahydro-[1,1′-biphenyl]-2-carbonyl)azepan-4-yl)thio)-1-oxoisoindolin-2-yl)piperidine-2,6-dione] | A (0%≤ substrate protein remaining % ≤80%) | A (0%≤ substrate protein remaining % ≤80%) | – | – |
| < 500 nM | O=C1CCC(N2Cc3cc(SC4C[C@@H]5CN(C(=O)c6ccccc6-c6ccc(Cl)cc6)C[C@@H]5C4)ccc3C2=O)C(=O)N1 (stereo partly drawn) [GT-07024, 3-(5-(((3aR,6aS)-2-(4′-chloro-[1,1′-biphenyl]-2-carbonyl)octahydro-cyclopenta[c]pyrrol-5-yl)thio)-1-oxoisoindolin-2-yl)piperidine-2,6-dione] | – | A (0%≤ substrate protein remaining % ≤80%) | A (0%≤ substrate protein remaining % ≤80%) | – |
| 1000 to 1900 nM | O=C1CCC(N2Cc3cc(SC4CCCN(Cc5ccccc5-c5ccc(Cl)cc5)CC4)ccc3C2=O)C(=O)N1 (stereo not shown) [GT-06643, 3-(5-((1-((4′-chloro-[1,1′-biphenyl]-2-yl)methyl)azepan-4-yl)thio)-1-oxoisoindolin-2-yl)piperidine-2,6-dione] | – | A (0%≤ substrate protein remaining % ≤80%) | A (0%≤ substrate protein remaining % ≤80%) | – |
| 500 to 1000 nM | O=C1CCC(N2Cc3cc(SC4CC5(CCNCC5)C4)ccc3C2=O)C(=O)N1 (stereo not shown) [GT-06997, 3-(5-((7-azaspiro[3.5]nonan-2-yl)thio)-1-oxoisoindolin-2-yl)piperidine-2,6-dione] | A (0%≤ substrate protein remaining % ≤80%) | A (0%≤ substrate protein remaining % ≤80%) | – | – |

— US20260207578A1, “COMPOUND BASED ON SULFUR/OXYGEN SUBSTITUTED GLUTARIMIDE-BASED ISOINDOLINONE SKELETON AND USE THEREOF” (Gluetacs Therapeutics (Shanghai) Co., LTD., priority 2022, published 2026)
